Data set [1] in a line: Observations and adverse reactions after intraperitoneal administration. The conditions noted are these: IP 50 mg/kg in sterile water for injection. Type of data set: in vivo, CD-1 mice. As for the experimental part:
(§1) In this study, the brain-to-plasma ratio of Compound 2 and Compound 3 was evaluated after intraperitoneal dosing in fasted male CD-1 mice. Test compounds were dosed at 50 mg/kg in sterile water for injection. Plasma and brain homogenate levels were determined at 1 and 3 hours post dose by LC-MS/MS.

Data set [2] is described as follows: Determination of the brain-to-plasma ratio after intraperitoneal administration (plasma and brain homogenate levels by LC-MS/MS). It is filed as in vivo, male CD-1 mice. More on the design: Brain Tissue Homogen. Conc / Brain Tissue Conc: unit not given here. As for the experimental part:
as §1
The dosing solution was diluted in triplicate into mouse plasma and analyzed in parallel with the study samples. The nominal dosing solution concentration was used in all calculations. All concentrations are expressed as […] of the free drug. All data are expressed as ng/mL (equivalent to ng/g for calculation of brain:plasma ratio) of the free drug. Samples that were below the limit of quantitation were not used in the calculation of averages.
Brain-to-plasma ratios were determined by dividing the brain concentration in ng/g by the plasma concentration in ng/g.
Brain samples were homogenizcd with a Virsonic 100 ultrasonic homogenizer. Each brain sample was first weighed, and then an appropriate volume of 20:80 methanol:water was added to make a 4 mL/1 gram sample. Samples were then homogenized on ice, and stored frozen until analysis.
Standards samples were prepared in either CD-1 Mouse plasma containing K2EDTA as an anticoagulant or CD-1 mouse brain homogenate. Working solutions (200 μg/mL and/or 20 μg/mL for each test compound) was prepared in 50:50 ACN:water. Then, a nine-point calibration curve was prepared at concentrations of 2000, 1500, 1000, 500, 100, 50, 20, 10, and 5 ng/mL of each test compound by serial dilution; or for a high-sensitivity method, another nine point calibration curve was prepared at concentrations of 200, 150, 100, 50, 10, 5, 2, 1, and 0.5 ng/mL of each test compound by serial dilution. Standard samples were treated identically to the study samples.
Plasma and brain homogenate samples were extracted via acetonitrile precipitation on a Tomtec Quadra 96-Model 320 liquid handling system in a 96-well plate format.

[3] abbreviates: IP 50 mg/kg, 1.0 hr post dose, individual mouse, 50 mg/kg.
The mark [4] stands for this setting: IP 50 mg/kg, 3.0 hr post dose, individual mouse, 50 mg/kg.
[5] abbreviates: male, CD-1, mouse, brain/plasma, ip, 50 mg/kg, 1 hour post dose, mean of mice, read-out: Average B:P Ratio.

Where “and” joins values, the source holds several entries; their conditions need not be identical. Equal entries are not always repeated. Where two headings read alike, the source gives them in different places.

Regarding `COCCN(C)C(=O)c1cc(C(=O)N(C)CCOC)cc(C(=O)N(C)CCOC)c1` [Compound 3, N^1,N^3,N^5-tris(2-methoxyethyl)-N^1,N^3,N^5-trimethylbenzene-1,3,5-tricarboxamide], in data set [1], the “adverse effects after intraperitoneal administration” value is listed as “No adverse effects were observed”. Further, the “Average B:P Ratio” value in data set [2] (IP 50 mg/kg, 1 hour post dose, mean of mice, 50 mg/kg) is reported as 0.038; in data set [2] (IP 50 mg/kg, 3 hours post dose, mean of mice, 50 mg/kg), 0.525. The “B:P Ratio” value in data set [2] (IP 50 mg/kg, 1.0 hr post dose, individual mouse) is 0.04; in data set [2] (setting [4]) it was 0.78 and 0.24 and 0.55. The “Plasma Conc” value in data set [2] (setting [3]) was 3010 ng/mL and 2440 ng/mL; in data set [2] (setting [4]), 17.2 ng/mL and 36 ng/mL and 71.7 ng/mL. Further, the Kp at 1 h in data set [2] (setting [5]) came out at 0.038 ± 0.004; in data set [2] (male, CD-1, mouse, brain/plasma, ip, 50 mg/kg, 1.0 hr post dose, individual mouse, read-out: B:P Ratio), 0.04. The Kp at 3 h in data set [2] (male, CD-1, mouse, brain/plasma, ip, 50 mg/kg, 3 hours post dose, mean of mice, read-out: Average B:P Ratio) worked out at 0.525 ± 0.275. For the same molecule, the concentration at 1 h in data set [2] (male, CD-1, mouse, plasma, ip, 50 mg/kg, 1.0 hr post dose, individual mouse, read-out: Plasma Conc) came out at 2770 ng/mL.
Take `COCCNC(=O)c1cc(C(=O)NCCOC)cc(C(=O)NCCOC)c1` [Compound 2, N^1,N^3,N^5-tris(2-methoxyethyl)benzene-1,3,5-tricarboxamide]: in data set [1], the “adverse effects after intraperitoneal administration” value was “No adverse effects were observed”. Besides, in data set [2] (setting [3]), the “B:P Ratio” value was 0.01 and 0.1; the “Brain Tissue Conc” value amounted to 4.19; the “Plasma Conc” value was 675 ng/mL and 30.7 ng/mL and 41.8 ng/mL. For the same molecule, the “Brain Tissue Homogen. Conc” value in data set [2] (IP 50 mg/kg, 3.0 hr post dose, individual mouse) is on record as “BLQ”. Besides, in data set [2] (setting [4]), the “Plasma Conc” value is 3.13 ng/mL and 2.22 ng/mL and 16.5 ng/mL. Further, the concentration at 3 h in data set [2] (male, CD-1, mouse, brain, ip, 50 mg/kg, 3 hours post dose, read-out: brain tissue concentrations (BLOQ)) was under 0.5 ng/mL. Besides, in data set [2] (setting [5]), the Kp at 1 h was 0.056.

The record behind these values is US9828332B2, “Non-peptide BDNF neurotrophin mimetics” (PHARMATROPHIX, INC., priority 2013, dated 2017).
